# Results published in ChEMBL document CHEMBL4177607, “Antibacterial constituents of the plant family Amaryllidaceae” (2017).
# Legend:
# Format in all cases: functional
# Flavobacterium columnare [1] = experiment: Antibacterial activity against Flavobacterium columnare BioMed after 24 hrs
# Staphylococcus aureus [2] = experiment: Antibacterial activity against Staphylococcus aureus
# Flavobacterium columnare [3] = experiment: Antibacterial activity against Flavobacterium columnare ALM-00-173 after 24 hrs; conditions: ALM-00-173, 24 h
# Edwardsiella ictaluri = experiment: Antibacterial activity against Edwardsiella ictaluri after 24 hrs
# Pseudomonas aeruginosa = experiment: Antibacterial activity against Pseudomonas aeruginosa after 24 hrs by broth microdilution method
# Shigella flexneri = experiment: Antibacterial activity against Shigella flexneri after 24 hrs by broth microdilution method
# Escherichia coli [4] = experiment: Antibacterial activity against Escherichia coli after 24 hrs by broth microdilution method
# Staphylococcus aureus [5] = experiment: Antibacterial activity against Staphylococcus aureus assessed as diameter of inhibition zone at 3 mg/ml; conditions: read-out: DIZ
# Escherichia coli [6] = experiment: Antibacterial activity against Escherichia coli assessed as diameter of inhibition zone at 1 mg/ml; conditions: read-out: DIZ
# Staphylococcus aureus [7] = experiment: Antibacterial activity against Staphylococcus aureus assessed as diameter of inhibition zone at 1 mg/ml; conditions: read-out: DIZ
# Rhodococcus fascians = experiment: Antibacterial activity against Corynebacterium fascians assessed as diameter of inhibition zone at 10 mM after 48 to 72 hrs by paper disc method; conditions: Rhodococcoides fascians; read-out: DIZ
# Escherichia coli [8] = experiment: Antibacterial activity against Escherichia coli incubated overnight by two-fold serial dilution method
# Staphylococcus aureus [9] = experiment: Antibacterial activity against Staphylococcus aureus incubated overnight by two-fold serial dilution method
smiles,measurement,setting,value
Cl.O[C@H]1[C@H]2c3cc4c(cc3CN3CCC(=C[C@@H]1O)[C@H]23)OCO4,MIC,Flavobacterium columnare [1],32 µg/mL
same,MIC,Staphylococcus aureus [2],> 32 µg/mL
same,MIC,Flavobacterium columnare [3],3 µg/mL
same,MIC,Edwardsiella ictaluri,> 32 µg/mL
CC(=O)O[C@H]1[C@H]2c3cc4c(cc3CN3CCC(=C[C@@H]1O)[C@H]23)OCO4,MIC,Staphylococcus aureus [2],> 33 µg/mL
same,MIC,Edwardsiella ictaluri,> 33 µg/mL
CC(=O)O[C@H]1[C@H]2c3cc4c(cc3CN3CCC(=C[C@@H]1OC(C)=O)[C@H]23)OCO4.Cl,MIC,Flavobacterium columnare [1],40.7 µg/mL
same,MIC,Flavobacterium columnare [3],40.7 µg/mL
C[N+]12CCC3=C[C@H](OC(=O)c4ccccc4Cl)[C@@H](OC(=O)c4ccccc4Cl)[C@@H](c4cc5c(cc4C1)OCO5)[C@@H]32.[I-] (stereo partly specified),MIC,Flavobacterium columnare [1],> 70 µg/mL
same,MIC,Flavobacterium columnare [3],> 70 µg/mL
CCCC(=O)Oc1ccc([C@@H]2CC(=O)c3c(O)c(C)c(O)c(C)c3O2)cc1,MIC,Pseudomonas aeruginosa,8 µg/mL
same,MIC,Shigella flexneri,2 µg/mL
same,MIC,Escherichia coli [4],4 µg/mL
CCCCCCCC(=O)Oc1ccc([C@@H]2CC(=O)c3c(O)c(C)c(O)c(C)c3O2)cc1,MIC,Pseudomonas aeruginosa,16 µg/mL
same,MIC,Shigella flexneri,64 µg/mL
same,MIC,Escherichia coli [4],32 µg/mL
Cc1ccccc1C(=O)O[C@H]1[C@H]2c3cc4c(cc3CN3CCC(=C[C@@H]1OC(=O)c1ccccc1C)[C@H]23)OCO4,MIC,Flavobacterium columnare [1],4.1 µg/mL
same,MIC,Flavobacterium columnare [3],4.1 µg/mL
Cc1ccccc1C(=O)O[C@H]1C=C2CCN3Cc4cc5c(cc4[C@H]([C@@H]1O)[C@@H]23)OCO5,MIC,Flavobacterium columnare [1],22.9 µg/mL
same,MIC,Flavobacterium columnare [3],46.4 µg/mL
CCCCCCCC(=O)Oc1c(C)c(O)c2c(c1C)O[C@H](c1ccc(O)cc1)CC2=O,MIC,Pseudomonas aeruginosa,32 µg/mL
same,MIC,Shigella flexneri,16 µg/mL
same,MIC,Escherichia coli [4],16 µg/mL
[O-]c1ccc2c3c1c1cc4c(cc1c[n+]3CC2)OCO4,MIC,Flavobacterium columnare [1],100 µM
same,MIC,Flavobacterium columnare [3],10 µM
COc1cc2c(c(O)c1C)C(=O)C(O)C(c1ccc(O)cc1)O2 (stereo unspecified),MIC,Pseudomonas aeruginosa,32 µg/mL
same,MIC,Shigella flexneri,4 µg/mL
same,MIC,Escherichia coli [4],16 µg/mL
O[C@@H]1C=C[C@]23c4cc5c(cc4C[N@@](C[C@@H]2O)[C@H]3C1)OCO5,zone of inhibition at 3000 µg/mL,Staphylococcus aureus [5],17 mm
O=C(O[C@H]1C=C2CCN3Cc4cc5c(cc4[C@H]([C@@H]1OC(=O)c1ccccc1Cl)[C@@H]23)OCO5)c1cccc(Cl)c1,MIC,Flavobacterium columnare [1],5.6 µg/mL
same,MIC,Flavobacterium columnare [3],31 µg/mL
Cc1ccc(C(=O)O[C@H]2[C@H]3c4cc5c(cc4CN4CCC(=C[C@@H]2OC(=O)c2ccc(C)cc2)[C@H]34)OCO5)cc1,MIC,Flavobacterium columnare [1],22.9 µg/mL
same,MIC,Flavobacterium columnare [3],46.4 µg/mL
COc1cc2c(cc1OC)[C@@H](O)O[C@@H]1CC=C3CCN(C)[C@H]3[C@H]21,zone of inhibition at 1000 µg/mL,Escherichia coli [6],15 mm
same,zone of inhibition at 1000 µg/mL,Staphylococcus aureus [7],14 mm
O=C(O[C@H]1C=C2CCN3Cc4cc5c(cc4[C@H]([C@@H]1O)[C@@H]23)OCO5)c1ccc(Cl)cc1,MIC,Flavobacterium columnare [1],42.6 µg/mL
same,MIC,Flavobacterium columnare [3],42.6 µg/mL
Cc1ccccc1NC(=O)O[C@H]1C=C2CCN3Cc4cc5c(cc4[C@H]([C@@H]1O)[C@@H]23)OCO5,MIC,Flavobacterium columnare [1],42.1 µg/mL
same,MIC,Flavobacterium columnare [3],23.2 µg/mL
CCCCCCCCCCCC(=O)Oc1ccc([C@@H]2CC(=O)c3c(O)c(C)c(O)c(C)c3O2)cc1,MIC,Pseudomonas aeruginosa,16 µg/mL
same,MIC,Shigella flexneri,8 µg/mL
same,MIC,Escherichia coli [4],8 µg/mL
Cc1ccc(C(=O)Oc2ccc([C@@H]3CC(=O)c4c(O)c(C)c(OC(=O)c5ccc(C)cc5)c(C)c4O3)cc2)cc1,MIC,Pseudomonas aeruginosa,16 µg/mL
same,MIC,Shigella flexneri,8 µg/mL
same,MIC,Escherichia coli [4],8 µg/mL
O=C(O[C@H]1[C@H]2c3cc4c(cc3CN3CCC(=C[C@@H]1OC(=O)c1cccc(Cl)c1)[C@H]23)OCO4)c1cccc(Cl)c1,MIC,Flavobacterium columnare [1],5.6 µg/mL
same,MIC,Flavobacterium columnare [3],5.6 µg/mL
COc1cc2c(cc1OC)[C@H]1[C@H]3C(=CC[C@H]1O[C@@H]2OC)CCN3C,zone of inhibition at 1000 µg/mL,Escherichia coli [6],14 mm
same,zone of inhibition at 1000 µg/mL,Staphylococcus aureus [7],14 mm
Cc1ccc(C(=O)O[C@H]2[C@H]3c4cc5c(cc4CN4CCC(=C[C@@H]2OC(=O)c2ccc(C)cc2C)[C@H]34)OCO5)c(C)c1,MIC,Flavobacterium columnare [1],30.4 µg/mL
same,MIC,Flavobacterium columnare [3],5.5 µg/mL
Cc1cccc(C(=O)O[C@H]2[C@H]3c4cc5c(cc4CN4CCC(=C[C@@H]2OC(=O)c2cccc(C)c2)[C@H]34)OCO5)c1,MIC,Flavobacterium columnare [1],28.8 µg/mL
same,MIC,Flavobacterium columnare [3],5.2 µg/mL
O=C(O[C@H]1[C@H]2c3cc4c(cc3CN3CCC(=C[C@@H]1OC(=O)c1ccc(Cl)cc1)[C@H]23)OCO4)c1ccc(Cl)cc1,MIC,Flavobacterium columnare [1],5.6 µg/mL
same,MIC,Flavobacterium columnare [3],31 µg/mL
Cc1ccccc1NC(=O)O[C@H]1[C@H]2c3cc4c(cc3CN3CCC(=C[C@@H]1OC(=O)Nc1ccccc1C)[C@H]23)OCO4,MIC,Flavobacterium columnare [1],5.5 µg/mL
same,MIC,Flavobacterium columnare [3],5.5 µg/mL
COc1cc2c[n+]3c4c(cc([O-])cc4c2cc1O)CC3,MIC,Flavobacterium columnare [1],10 µM
same,MIC,Flavobacterium columnare [3],100 µM
Cc1ccc(C(=O)O[C@H]2C=C3CCN4Cc5cc6c(cc5[C@H]([C@@H]2O)[C@@H]34)OCO6)cc1,MIC,Flavobacterium columnare [1],22.9 µg/mL
same,MIC,Flavobacterium columnare [3],4.7 µg/mL
Cc1cccc(C(=O)O[C@H]2[C@H]3c4cc5c(cc4CN4CCC(=C[C@@H]2OC(=O)c2cccc(C)c2C)[C@H]34)OCO5)c1C,MIC,Flavobacterium columnare [1],55.2 µg/mL
same,MIC,Flavobacterium columnare [3],30.4 µg/mL
CCCC(=O)Oc1ccc([C@@H]2CC(=O)c3c(O)c(C)c(OC(=O)CCC)c(C)c3O2)cc1,MIC,Pseudomonas aeruginosa,4 µg/mL
same,MIC,Shigella flexneri,2 µg/mL
same,MIC,Escherichia coli [4],2 µg/mL
Oc1ccc2c3c1c1cc4c(cc1c[n+]3CC2)OCO4,zone of inhibition at 10000 µM,Rhodococcus fascians,10 mm
O=C1N[C@H]2[C@H](O)[C@H](O)[C@@H](O)C[C@@H]2c2cc3c(c(O)c21)OCO3,MIC,Pseudomonas aeruginosa,16 µg/mL
same,MIC,Shigella flexneri,4 µg/mL
same,MIC,Escherichia coli [4],4 µg/mL
CC(=O)O[C@H]1[C@H]2c3cc4c(cc3CN3CCC(=C[C@@H]1OC(C)=O)[C@H]23)OCO4,MIC,Flavobacterium columnare [1],37 µg/mL
same,MIC,Staphylococcus aureus [2],> 37 µg/mL
same,MIC,Flavobacterium columnare [3],4 µg/mL
same,MIC,Edwardsiella ictaluri,> 37 µg/mL
O=c1c2cc3c(cc2c2cccc4c2n1CC4)OCO3,MIC,Flavobacterium columnare [1],100 µM
same,zone of inhibition at 10000 µM,Rhodococcus fascians,25 mm
same,MIC,Flavobacterium columnare [3],10 µM
Oc1cc2c3c(c1)c1cc4c(cc1c[n+]3CC2)OCO4,MIC,Flavobacterium columnare [1],10 µM
same,zone of inhibition at 10000 µM,Rhodococcus fascians,0 mm
same,MIC,Flavobacterium columnare [3],1 µM
Oc1cc2c3c(c1)-c1cc4c(cc1CN3CC2)OCO4,zone of inhibition at 10000 µM,Rhodococcus fascians,0 mm
O=C1N[C@@H]2C(=C[C@H](O)[C@@H](O)[C@H]2O)c2cc3c(cc21)OCO3,zone of inhibition at 1000 µg/mL,Escherichia coli [6],12 mm
same,zone of inhibition at 1000 µg/mL,Staphylococcus aureus [7],11 mm
CC(=O)O[C@H]1C=C2CCN3Cc4cc5c(cc4[C@H]([C@@H]1O)[C@@H]23)OCO5,MIC,Flavobacterium columnare [1],3.3 µg/mL
same,MIC,Flavobacterium columnare [3],16.6 µg/mL
O=C1C=C2CCN3Cc4cc5c(cc4[C@H]([C@@H]1O)[C@@H]23)OCO5,MIC,Flavobacterium columnare [1],> 26 µg/mL
same,MIC,Staphylococcus aureus [2],> 26 µg/mL
same,MIC,Flavobacterium columnare [3],> 26 µg/mL
same,MIC,Edwardsiella ictaluri,> 26 µg/mL
CC(=O)O[C@H]1[C@H]2c3cc4c(cc3CN3CC[C@H](C[C@@H]1OC(C)=O)[C@H]23)OCO4,MIC,Flavobacterium columnare [1],> 37 µg/mL
same,MIC,Staphylococcus aureus [2],> 37 µg/mL
same,MIC,Flavobacterium columnare [3],> 37 µg/mL
same,MIC,Edwardsiella ictaluri,> 37 µg/mL
COC1C=C[C@@]23CCN(Cc4cc5c(cc42)OCO5)[C@@H]3C1 (stereo partly specified),MIC,Escherichia coli [8],1020 µg/mL
same,MIC,Staphylococcus aureus [9],1020 µg/mL
c1cc2c3c(c1)-c1cc4c(cc1CN3CC2)OCO4 [ANHYDROLYCORINE],zone of inhibition at 10000 µM,Rhodococcus fascians,25 mm
c1cc2c3c(c1)c1cc4c(cc1c[n+]3CC2)OCO4 [ANHYDROLYCORINIUM CHLORIDE],zone of inhibition at 10000 µM,Rhodococcus fascians,30 mm
CC[C@H](CC[C@@H](C)[C@H]1CC[C@H]2[C@@H]3CC=C4C[C@@H](O)CC[C@]4(C)[C@H]3CC[C@]12C)C(C)C [BETA-SITOSTEROL],zone of inhibition at 1000 µg/mL,Escherichia coli [6],13 mm
same,zone of inhibition at 1000 µg/mL,Staphylococcus aureus [7],15 mm
Cc1c(O)c(C)c2c(c1O)C(=O)C[C@@H](c1ccc(O)cc1)O2 [FARREROL],MIC,Pseudomonas aeruginosa,8 µg/mL
same,MIC,Shigella flexneri,2 µg/mL
same,MIC,Escherichia coli [4],4 µg/mL
COc1ccc2c3c1O[C@H]1C[C@@H](O)C=C[C@@]31CCN(C)C2 [GALANTAMINE],MIC,Escherichia coli [8],2050 µg/mL
same,MIC,Staphylococcus aureus [9],2050 µg/mL
O[C@H]1[C@H]2c3cc4c(cc3CN3CCC(=C[C@@H]1O)[C@H]23)OCO4 [LYCORINE],MIC,Flavobacterium columnare [1],100 µM
same,MIC,Staphylococcus aureus [2],> 287 µg/mL
same,zone of inhibition at 1000 µg/mL,Escherichia coli [6],13 to 25 mm
same,zone of inhibition at 10000 µM,Rhodococcus fascians,0 mm
same,MIC,Flavobacterium columnare [3],100 µM
same,zone of inhibition at 1000 µg/mL,Staphylococcus aureus [7],15 to 28 mm
same,MIC,Edwardsiella ictaluri,> 287 µg/mL
COc1c(C)c(O)c2c(=O)cc(-c3ccc(O)cc3)oc2c1C [SIDEROXYLIN],MIC,Pseudomonas aeruginosa,64 µg/mL
same,MIC,Shigella flexneri,8 µg/mL
same,MIC,Escherichia coli [4],32 µg/mL
CN(C)[C@@H]1C(O)=C(C(N)=O)C(=O)[C@@]2(O)C(O)=C3C(=O)c4c(O)cccc4[C@@](C)(O)[C@H]3C[C@@H]12 [TETRACYCLINE],MIC,Escherichia coli [8],2 µg/mL
same,MIC,Staphylococcus aureus [9],0.5 µg/mL
